Laboratory results taken from patent publication US20240041878A1, “APELIN RECEPTOR MODULATORS FOR TREATMENT OF A DISORDER OR DISEASE ASSOCIATED WITH BBB PERMEABILITY” (BioAge Labs, Inc., priority 2022, published 2024).

Assays:
Mouse astrocyte cells = assay: CXCL1 and IL-6 ELISA of astrocyte culture media after RAC treatment; type: cell-based; conditions: RAC+APL [50 nM]
Protocol: To stimulate astrocytes into a reactive state found in aging and neurodegenerative diseases per previous publications (Liddelow et al., 2017; Barbar et al., 2020), a combination of the cytokines TNF-α and IL-1α, and complement factor C1q, were added at 30 ng/mL, 3 ng/mL, and 400 ng/mL, respectively, into astrocyte culture media to make 'reactive astrocyte cocktail' (RAC) media. […] Bachem, Cat. #4029110), BAY-11-7082 (50 μM; Abcam, Cat. #ab141228) or equal volume of vehicle (0.01% DMSO in PBS) (hereafter referred to as 'RAC treatment'). Cells in Groups 3-6 were treated with RAC for 24 hours, with or without the test compounds (n=4 per group). • Group 1: Control [CON] • Group 2: CON+BGE-105 (50 nM) [CON+105] • Group 3: Reactive control treated with RAC only [RAC] • Group 4: RAC+BGE-105 (50 nM) [RAC+105] • Group 5: RAC+Pyrm-Apelin-13 (50 nM) • Group 6: RAC+BAY-11-7082 (NF-κB inhibitor; 50 μM) [RAC+BAY] Media from each tested cell group was collected for cytokine release analysis. Cells were lysed for RNA collection and RT-PCR was performed to synthesis cDNA under standard conditions. Next, transcriptome analysis was performed to determine the expression level of astrocyte genes or astrocyte responsive genes. Changes of expression was normalized to β-actin (FIGS. 8 and 9). Exemplary biomarkers include CCL2, CXCL10, CXCL11, CXCL1, CXCL2, CXCL3, CXCL8, EDN1, […]3, CIS, CTRL, C3, CFB, VEGF, and IL-6. For analysis of cytokines secreted by astrocytes, culture media was collected after RAC treatment, centrifuged at 10,000 RPM for 5 minutes to pellet any debris, and supernatant was transferred to a new tube and assayed immediately or frozen at -80° C. For individual analysis of CXCL1 or IL-6 concentrations, cell culture supernatant was diluted 1:50 or 1:10, respectively, and assessed using mouse-specific ELISA kits per manufacturer's protocols (R&D Systems, Cat. #DY453 and #DY406).

Mouse primary astrocytes = assay: Astrocyte glutamate uptake; type: cell-based; conditions: RAC+APL [50 nM] versus RAC
Protocol: To stimulate astrocytes into a reactive state found in aging and neurodegenerative diseases per previous publications (Liddelow et al., 2017; Barbar et al., 2020), a combination of the cytokines TNF-α and IL-1α, and complement factor C1q, were added at 30 ng/mL, 3 ng/mL, and 400 ng/mL, respectively, into astrocyte culture media to make 'reactive astrocyte cocktail' (RAC) media. […] Bachem, Cat. #4029110), BAY-11-7082 (50 μM; Abcam, Cat. #ab141228) or equal volume of vehicle (0.01% DMSO in PBS) (hereafter referred to as 'RAC treatment'). […] Fresh HBSS was added to each well and 100 μM glutamate (Sigma, Cat. #G1251) was added to each well. Empty wells not containing cells were filled with HBSS and 100 μM [NT] negative control. Cells were incubated at room temperature for 3 hours before HBSS was collected and glutamate concentration determined by colorimetric assay (Sigma, Cat. #MAK004). Relative change in glutamate uptake was calculated compared to negative control wells.

Substance: (Pyr^1)-Apelin-13 [reference compound]
- CXCL1 concentration/release compared with BGE-105 [50 nM] group (Mouse astrocyte cells): no significant difference
- IL-6 concentration/release compared with BGE-105 [50 nM] group (Mouse astrocyte cells): no significant difference
- percentage of glutamate uptake in RAC astrocytes (Mouse primary astrocytes): significantly and statistically increased
